# Active and inactive are the calls of the source. No cut-off for these calls is given here.
# Assays:
# Format in all cases: functional, cell-based
# Settings in all cases: for Activity: time 24-48 hrs
# [1] = test system: BXPC-3; test: Antiproliferative activity against human BXPC-3 cells after 24 to 48 hrs by Cell Titer-Glo luminiscent cell viability assay
# [2] = test system: ASPC1; test: Antiproliferative activity against human ASPC1 cells after 24 to 48 hrs by Cell Titer-Glo luminiscent cell viability assay
# [3] = test system: MIA PaCa-2; test: Antiproliferative activity against human MIA PaCa-2 cells after 24 to 48 hrs by Cell Titer-Glo luminiscent cell viability assay
# [4] = test system: PANC-1; test: Antiproliferative activity against human PANC-1 cells after 24 to 48 hrs by Cell Titer-Glo luminiscent cell viability assay
Compound,Activity [1],Activity [2],Activity [3],Activity [4],IC50 [1],IC50 [2],IC50 [3],IC50 [4]
CCC1=C(C)CN(C(=O)NCCc2ccc(S(=O)(=O)NC(=O)N[C@H]3CC[C@H](C)CC3)cc2)C1=O,Active,Active,Active,Active,–,–,–,–
Cc1nc2n(c(=O)c1CCN1CCC(c3noc4cc(F)ccc34)CC1)CCCC2 [RISPERIDONE],–,–,–,–,7.5 µM,35.3 µM,10 µM,27.6 µM
O=C(O)c1ccc(NC(=O)[C@H](Cc2ccc(O)cc2)NC(=O)c2ccccc2)cc1,Active,Active,Active,Active,–,–,–,–
Cc1nc2n(c(=O)c1CCN1CCC(c3noc4cc(F)ccc34)CC1)CCCC2O (stereo unspecified),Active,Active,Active,Active,–,–,–,–
CC1(C)O[C@H]2C[C@H]3[C@@H]4CCC5=CC(=O)C=C[C@]5(C)[C@H]4[C@@H](O)C[C@]3(C)[C@]2(C(=O)CO)O1,Active,Active,Active,Active,–,–,–,–
CN1CCC(=C2c3ccccc3CC(=O)c3sccc32)CC1,Active,Active,Active,Active,–,–,–,–
COc1ccc(CCN2CCC(Nc3nc4ccccc4n3Cc3ccc(F)cc3)CC2)cc1 [ASTEMIZOLE],–,–,–,–,3.7 µM,5.3 µM,1.3 µM,1.8 µM
COc1ccc(-c2ccc3cc(C(=O)O)ccc3c2)cc1C12CC3CC(CC(C3)C1)C2,Active,Active,Active,Active,–,–,–,–
C[C@]12CC[C@@H]3c4ccc(OS(=O)(=O)O)cc4CC[C@H]3[C@@H]1CCC2=O,Active,Active,Active,Active,–,–,–,–

# Source: ChEMBL document CHEMBL5050839, “Methods and compositions for treatment of cancer” (2021)
